The source of these data is US8242113B2, “Oxazolidinone derivatives with cyclic amidoxime or cyclic amidrazone pharmaceutical compositions thereof” (Legochem Biosciences, Inc., priority 2008, dated 2012).

In brackets after ≈: the same amount, converted by molar mass.

The subject of test [1] is linezolid- and vancomycin-resistant Enterococcus faecalis (LVRE). As to the kind of experiment: In vitro antibacterial activity, broth microdilution (MIC90). The settings on record: read-out: Antibacterial activity MIC90, LVRE. On the technique in general: In broth dilution the organism is exposed to a series of concentrations in liquid medium.
From the text: (§1) MIC90 measurement was made according to the broth microdilution method based on the CLSI document [Clinical and Laboratory Standards Institute Document.
(§2) The test compounds in DMSO solution were further diluted 20-fold with sterile distilled water.
In test [2] the test system is methicillin-resistant Staphylococcus aureus (MRSA). The description is as above. To be noted: read-out: Antibacterial activity MIC90, MRSA.
From the text: as §1, §2

Turning to `CC(=O)NC[C@H]1CN(c2ccc(N3C=NN(C(=S)OCCO)CC3)c(F)c2)C(=O)O1` [Compound 32], the MIC in test [1] came out at 32 µg/mL (≈ 72.8 µM). In test [2], the MIC90 stood at 8 µg/mL (≈ 18.2 µM).
For `C#CCN1CCN(c2ccc(N3C[C@H](CNC(C)=O)OC3=O)cc2F)C=N1` [Compound 5], the MIC in test [1] was 8 µg/mL (≈ 21.4 µM). Further, the MIC90 in test [2] turned out to be 1 µg/mL (≈ 2.68 µM).
For `C#CCN1CCN(c2ccc(N3C[C@H](CNC(=S)OC)OC3=O)cc2F)C=N1` [Compound 63], in that order: 4 µg/mL (≈ 9.87 µM) and 0.5 µg/mL (≈ 1.23 µM).
With `CC(=O)NC[C@H]1CN(c2ccc(N3C=NOCC3)c(F)c2)C(=O)O1` [Compound 28], in test [1], the MIC turned out to be 16 µg/mL (≈ 47.6 µM). Besides, in test [2], the MIC90 was found to be 2 µg/mL (≈ 5.95 µM).
The like results for `O=C1O[C@@H](Cn2ccnn2)CN1c1ccc(N2C=NNCC2)c(F)c1` [Compound 82] were, in that order, 32 µg/mL (≈ 92.7 µM) and 2 µg/mL (≈ 5.79 µM).
Take `CC(=O)NC[C@H]1CN(c2ccc(N3C=NN(S(C)(=O)=O)CC3)c(F)c2)C(=O)O1` [Compound 18]: the MIC in test [1] amounted to 16 µg/mL (≈ 38.7 µM). In test [2], the MIC90 was 4 µg/mL (≈ 9.68 µM).
As for `COC(=S)NC[C@H]1CN(c2ccc(N3C=NN(C(=O)COC(C)=O)CC3)c(F)c2)C(=O)O1` [Compound 59], the MIC in test [1] is 2 µg/mL (≈ 4.28 µM). Further, the MIC90 in test [2] worked out at 0.5 µg/mL (≈ 1.07 µM).
With `COC(=S)NC[C@H]1CN(c2ccc(N3C=NN(CCOC(C)=O)CC3)c(F)c2)C(=O)O1` [Compound 71], the MIC in test [1] came to 4 µg/mL (≈ 8.82 µM). Moreover, the MIC90 in test [2] worked out at 0.5 µg/mL (≈ 1.1 µM).
Consider `COC(=S)NC[C@H]1CN(c2ccc(N3C=NOCC3)c(F)c2)C(=O)O1` [Compound 57], for which, in test [1], the MIC amounted to 2 µg/mL (≈ 5.43 µM). For the same compound, in test [2], the MIC90 was 0.25 µg/mL (≈ 0.679 µM).
The like results for `O=C1O[C@@H](CNc2ccon2)CN1c1ccc(N2C=NNCC2)c(F)c1` [Compound 86] were, in that order, 8 µg/mL (≈ 22.2 µM) and 0.5 µg/mL (≈ 1.39 µM).
Turning to `CC(=O)NC[C@H]1CN(c2ccc(N3C=NN(C(C)=O)CC3)c(F)c2)C(=O)O1` [Compound 10], the MIC in test [1] worked out at 32 µg/mL (≈ 84.8 µM). Besides, the MIC90 in test [2] amounted to 4 µg/mL (≈ 10.6 µM).
For `O=CN1CCN(c2ccc(N3C[C@H](CNc4ccon4)OC3=O)cc2F)C=N1` [Compound 85], in that order: 16 µg/mL (≈ 41.2 µM) and 0.5 µg/mL (≈ 1.29 µM).
The like results for `CC(=O)NC[C@H]1CN(c2ccc(N3C=NN(C)CC3)c(F)c2)C(=O)O1` [Compound 3] were, in that order, 8 µg/mL (≈ 22.9 µM) and 2 µg/mL (≈ 5.72 µM).
For `COC(=S)NC[C@H]1CN(c2ccc(N3C=NN(C)CC3)cc2)C(=O)O1` [Compound 98], in that order: 16 µg/mL (≈ 44 µM) and 1 µg/mL (≈ 2.75 µM).
For the compound `CC(=O)NC[C@H]1CN(c2ccc(N3C=NN(CCO)CC3)c(F)c2)C(=O)O1` [Compound 27], the MIC in test [1] came to 64 µg/mL (≈ 169 µM). The MIC90 in test [2] was found to be 4 µg/mL (≈ 10.5 µM).
For `O=CN1CCN(c2ccc(N3C[C@H](Cn4ccnn4)OC3=O)cc2F)C=N1` [Compound 81], the MIC in test [1] was determined as 16 µg/mL (≈ 42.9 µM). Moreover, in test [2], the MIC90 amounted to 1 µg/mL (≈ 2.68 µM).
The like results for `CC(=S)NC[C@H]1CN(c2ccc(N3C=NN(C(=O)CO)CC3)c(F)c2)C(=O)O1` [Compound 76] were, in that order, 2 µg/mL (≈ 4.88 µM) and 0.5 µg/mL (≈ 1.22 µM).
In the case of `CC(C)OC(=S)NC[C@H]1CN(c2ccc(N3C=NN(C=O)CC3)c(F)c2)C(=O)O1` [Compound 55], the MIC in test [1] was determined as 8 µg/mL (≈ 18.9 µM). Besides, in test [2], the MIC90 worked out at 2 µg/mL (≈ 4.72 µM).
The like results for `CC(=O)NC[C@H]1CN(c2ccc(N3C=NN(S(N)(=O)=O)CC3)c(F)c2)C(=O)O1` [Compound 20] were, in that order, 64 µg/mL (≈ 154 µM) and 16 µg/mL (≈ 38.6 µM).
As to `CC(=O)NC[C@H]1CN(c2ccc(N3C=NN(C=O)CC3)c(F)c2)C(=O)O1` [Compound 1], the MIC in test [1] amounted to 8 µg/mL (≈ 22 µM). In addition, the MIC90 in test [2] came out at 1 µg/mL (≈ 2.75 µM).
Regarding `CC(=O)NC[C@H]1CN(c2ccc(N3C=NN(C(=O)N(CCO)CCO)CC3)c(F)c2)C(=O)O1` [Compound 16], in test [1], the MIC is above 128 µg/mL. The MIC90 in test [2] is 128 µg/mL (≈ 274 µM).
The like results for `COC(=S)NC[C@H]1CN(c2ccc(N3C=NNCC3)c(F)c2)C(=O)O1` [Compound 58] were, in that order, 4 µg/mL (≈ 10.9 µM) and 0.25 µg/mL (≈ 0.68 µM).
The like results for `CCOC(=O)N1CCN(c2ccc(N3C[C@H](CNC(C)=O)OC3=O)cc2F)C=N1` [Compound 35] were, in that order, 8 µg/mL (≈ 19.6 µM) and 2 µg/mL (≈ 4.91 µM).
For `O=CN1CCN(c2c(F)cc(N3C[C@H](CNc4ccon4)OC3=O)cc2F)C=N1` [Compound 105], in that order: 16 µg/mL (≈ 39.4 µM) and 0.5 µg/mL (≈ 1.23 µM).
Take `CC(=O)NC[C@H]1CN(c2ccc(N3C=NN(C)CC3)cc2)C(=O)O1` [Compound 96]: the MIC in test [1] came to 16 µg/mL (≈ 48.3 µM). Also, the MIC90 in test [2] was 2 µg/mL (≈ 6.04 µM).
For `CC(=O)NC[C@H]1CN(c2ccc(N3C=NN(CC(N)=O)CC3)c(F)c2)C(=O)O1` [Compound 25], in that order: 32 µg/mL (≈ 81.6 µM) and 4 µg/mL (≈ 10.2 µM).
For `CN1CCN(c2c(F)cc(N3C[C@H](CNc4ccon4)OC3=O)cc2F)C=N1` [Compound 106], in that order: 16 µg/mL (≈ 40.8 µM) and 0.5 µg/mL (≈ 1.27 µM).
The like results for `CCN1CCN(c2ccc(N3C[C@H](CNC(=S)OC)OC3=O)cc2F)C=N1` [Compound 61] were, in that order, 4 µg/mL (≈ 10.1 µM) and 0.5 µg/mL (≈ 1.26 µM).
For the compound `COC(=S)NC[C@H]1CN(c2ccc(N3C=NN(CC#N)CC3)c(F)c2)C(=O)O1` [Compound 65], in test [1], the MIC came to 4 µg/mL (≈ 9.84 µM). Also, the MIC90 in test [2] is 0.5 µg/mL (≈ 1.23 µM).
Take `CCOC(=O)CN1CCN(c2ccc(N3C[C@H](CNC(C)=O)OC3=O)cc2F)C=N1` [Compound 24]: the MIC in test [1] came out at 16 µg/mL (≈ 38 µM). The MIC90 in test [2] was determined as 2 µg/mL (≈ 4.75 µM).
`C#CCN1CCN(c2ccc(N3C[C@H](Cn4ccnn4)OC3=O)cc2F)C=N1` [Compound 84]: the MIC in test [1] amounted to 16 µg/mL (≈ 41.7 µM). In addition, the MIC90 in test [2] came out at 0.5 µg/mL (≈ 1.3 µM).
For `COC(=S)N1CCN(c2ccc(N3C[C@H](CNC(C)=O)OC3=O)cc2F)C=N1` [Compound 30], in that order: 4 µg/mL (≈ 9.77 µM) and 1 µg/mL (≈ 2.44 µM).
On to `CC(=S)NC[C@H]1CN(c2ccc(N3C=NNCC3)c(F)c2)C(=O)O1` [Compound 74], for which the MIC in test [1] is 2 µg/mL (≈ 5.69 µM). In test [2], the MIC90 was 0.25 µg/mL (≈ 0.711 µM).
For `CCNC(=S)NC[C@H]1CN(c2ccc(N3C=NN(C=O)CC3)c(F)c2)C(=O)O1` [Compound 56], the MIC in test [1] was 8 µg/mL (≈ 19.6 µM). In addition, in test [2], the MIC90 is 4 µg/mL (≈ 9.79 µM).
As for `C=C(Cl)CN1CCN(c2ccc(N3C[C@H](CNC(=S)OC)OC3=O)cc2F)C=N1` [Compound 66], the MIC in test [1] was 4 µg/mL (≈ 9.05 µM). In addition, in test [2], the MIC90 came out at 0.5 µg/mL (≈ 1.13 µM).
For `CCN1CCN(c2ccc(N3C[C@H](CNC(C)=O)OC3=O)cc2F)C=N1` [Compound 6], in that order: 8 µg/mL (≈ 22 µM) and 2 µg/mL (≈ 5.5 µM).
Take `CC(=S)NC[C@H]1CN(c2ccc(N3C=NN(C=O)CC3)c(F)c2)C(=O)O1` [Compound 73]: the MIC in test [1] worked out at 2 µg/mL (≈ 5.27 µM). In addition, in test [2], the MIC90 came to 0.0625 µg/mL (≈ 0.165 µM).
Regarding `CC(=O)NC[C@H]1CN(c2ccc(N3C=NN(C(N)=O)CC3)c(F)c2)C(=O)O1` [Compound 14], the MIC in test [1] amounted to 8 µg/mL (≈ 21.1 µM). Also, the MIC90 in test [2] was 2 µg/mL (≈ 5.29 µM).
For `N#CCN1CCN(c2ccc(N3C[C@H](CNC(=O)C(F)F)OC3=O)cc2F)C=N1` [Compound 50], in that order: 16 µg/mL (≈ 39 µM) and 2 µg/mL (≈ 4.87 µM).
With `O=CN1CCN(c2c(F)cc(N3C[C@H](Cn4ccnn4)OC3=O)cc2F)C=N1` [Compound 103], the MIC in test [1] came to 16 µg/mL (≈ 40.9 µM). Further, in test [2], the MIC90 was 0.25 µg/mL (≈ 0.639 µM).
For `COC(=S)NC[C@H]1CN(c2ccc(N3C=NN(CC4CC4)CC3)c(F)c2)C(=O)O1` [Compound 67], in that order: 4 µg/mL (≈ 9.49 µM) and 0.5 µg/mL (≈ 1.19 µM).
Take `CC(=O)NC[C@H]1CN(c2ccc(N3C=NN(C(=O)NCCO)CC3)c(F)c2)C(=O)O1` [Compound 15]: the MIC in test [1] was 8 µg/mL (≈ 18.9 µM). Further, the MIC90 in test [2] is 4 µg/mL (≈ 9.47 µM).

Broadly, the MIC90 is the lowest concentration that inhibits either 90% of growth or 90% of the strains tested, depending on the study.
